Usually IC50 stands for the concentration needed to halve the response being measured. Broadly, the EC50 is the concentration that produces a half-maximal response. One may read the AC50 as the concentration giving half of the maximal activity seen.

Structures are written as SMILES. Calls of active or inactive are those of the source.

The source of these data is ChEMBL document CHEMBL1201862, “PubChem BioAssay data set” (2004).

Series [1] has as its target Large T antigen (Simian virus 40, UniProt P03070). It counts as functional, Betapolyomavirus macacae.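 Also: Confirmatory-stage PubChem screen for compounds that inhibit SV40 T antigen.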
Series [2] can be described thus: Luminescence Cell-Based Dose Confirmation HTS to Identify Inhibitors of Platelet Dense Granule Release. [Related pubchem assays: 1663 (Primary HTS), 1678 (Summary of Project)]. It is filed as functional.
The target in series [3] is T1, Rac GTPase-activating protein 1 (Homo sapiens, UniProt Q9H0H5).
T1 sequence (Q9H0H5 whole entry): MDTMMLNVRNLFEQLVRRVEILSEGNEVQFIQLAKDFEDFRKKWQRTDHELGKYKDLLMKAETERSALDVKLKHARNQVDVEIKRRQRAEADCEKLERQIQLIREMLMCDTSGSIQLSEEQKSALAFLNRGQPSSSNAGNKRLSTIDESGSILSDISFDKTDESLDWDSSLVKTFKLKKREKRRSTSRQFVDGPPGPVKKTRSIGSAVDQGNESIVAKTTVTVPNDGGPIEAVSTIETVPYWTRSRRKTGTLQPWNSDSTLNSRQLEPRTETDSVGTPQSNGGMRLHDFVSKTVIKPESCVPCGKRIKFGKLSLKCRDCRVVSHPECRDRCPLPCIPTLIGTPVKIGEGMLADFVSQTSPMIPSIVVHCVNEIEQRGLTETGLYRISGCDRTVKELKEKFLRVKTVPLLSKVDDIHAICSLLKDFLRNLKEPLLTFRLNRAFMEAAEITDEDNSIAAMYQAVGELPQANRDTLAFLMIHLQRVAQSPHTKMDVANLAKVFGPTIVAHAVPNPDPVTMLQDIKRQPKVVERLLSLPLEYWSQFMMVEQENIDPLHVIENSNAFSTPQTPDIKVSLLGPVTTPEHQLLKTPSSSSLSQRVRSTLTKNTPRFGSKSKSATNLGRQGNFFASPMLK
Briefly: MgcRacGAP GTPase-activating activity inhibitors, confirmation, biochemical, ADP Hunter fluorescence, primary and confirmatory (AID 624330). It counts as functional.

For series [4], the target named is Luciferin 4-monooxygenase (Photinus pyralis, UniProt P08659). Briefly: firefly luciferase enzyme inhibitors, dose response, biochemical, luminescence (AID 1891).
Chain of Luciferin 4-monooxygenase (P08659 whole entry): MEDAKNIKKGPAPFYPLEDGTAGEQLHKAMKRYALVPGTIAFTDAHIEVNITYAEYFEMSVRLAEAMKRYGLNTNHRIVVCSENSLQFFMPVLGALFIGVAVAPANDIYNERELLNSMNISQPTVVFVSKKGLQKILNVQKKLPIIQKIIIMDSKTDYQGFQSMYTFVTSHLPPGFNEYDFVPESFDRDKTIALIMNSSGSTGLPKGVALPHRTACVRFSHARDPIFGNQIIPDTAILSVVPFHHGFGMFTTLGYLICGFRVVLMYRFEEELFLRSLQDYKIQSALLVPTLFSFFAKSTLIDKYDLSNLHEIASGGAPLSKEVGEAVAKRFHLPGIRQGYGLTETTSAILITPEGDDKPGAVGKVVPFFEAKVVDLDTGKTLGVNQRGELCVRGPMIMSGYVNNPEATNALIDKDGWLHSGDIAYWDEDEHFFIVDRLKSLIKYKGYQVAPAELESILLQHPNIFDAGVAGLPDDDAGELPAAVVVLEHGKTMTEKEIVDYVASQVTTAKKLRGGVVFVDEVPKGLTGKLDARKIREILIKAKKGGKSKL
Series [5] is described as follows: inhibitors of firefly luciferase expression or activity, dose response, H4 neuroglioma cells, luminescence (AID 1990). It is filed as functional, cell-based.
Series [6] can be described thus: inhibitors of SNCA 5'UTR-driven reporter translation, confirmation, H4 neuroglioma cells, luminescence (AID 1988). It is filed as functional, cell-based.
For series [7], the target named is T2, Microphthalmia-associated transcription factor (Homo sapiens, UniProt O75030).
T2 sequence (O75030 whole entry): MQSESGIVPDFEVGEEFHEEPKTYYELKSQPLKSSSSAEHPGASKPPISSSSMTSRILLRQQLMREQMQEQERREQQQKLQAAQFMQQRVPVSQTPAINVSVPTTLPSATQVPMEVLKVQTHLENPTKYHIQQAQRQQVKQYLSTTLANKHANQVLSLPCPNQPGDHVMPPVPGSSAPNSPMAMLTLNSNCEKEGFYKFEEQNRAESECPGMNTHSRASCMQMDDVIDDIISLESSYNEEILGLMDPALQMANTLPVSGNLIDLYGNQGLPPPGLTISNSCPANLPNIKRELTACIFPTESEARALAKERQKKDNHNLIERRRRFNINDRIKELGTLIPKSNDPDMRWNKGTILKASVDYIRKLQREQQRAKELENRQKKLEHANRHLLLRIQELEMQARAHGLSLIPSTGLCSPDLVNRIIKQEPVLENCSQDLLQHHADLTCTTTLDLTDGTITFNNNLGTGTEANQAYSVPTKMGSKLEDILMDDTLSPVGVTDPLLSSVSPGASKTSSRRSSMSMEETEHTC
Briefly: TRPM1 promoter luciferase signal decrease, dose response, MITF inhibitor project, cell-based, SK-MEL-5, cherry-picked, set 3 (AID 493073).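 Also: SK-MEL-5 melanoma cells with luciferase driven by the MITF target TRPM1 promoter.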 It counts as functional.

The nature of series [8]: Luminescence Cell-Based Dose Response HTS to Identify Inhibitors of 5'UTR Stem-Loop Driven Prion Protein mRNA Translation in H4 Neuroglioblastoma Cells. [Related pubchem assays: 1827 (Project Summary), 1813 (Primary HTS)]. It counts as functional.
Series [9] has as its target T3, Short transient receptor potential channel 4 (Mus musculus, UniProt Q9QUQ5).
T3 sequence (Q9QUQ5 whole entry): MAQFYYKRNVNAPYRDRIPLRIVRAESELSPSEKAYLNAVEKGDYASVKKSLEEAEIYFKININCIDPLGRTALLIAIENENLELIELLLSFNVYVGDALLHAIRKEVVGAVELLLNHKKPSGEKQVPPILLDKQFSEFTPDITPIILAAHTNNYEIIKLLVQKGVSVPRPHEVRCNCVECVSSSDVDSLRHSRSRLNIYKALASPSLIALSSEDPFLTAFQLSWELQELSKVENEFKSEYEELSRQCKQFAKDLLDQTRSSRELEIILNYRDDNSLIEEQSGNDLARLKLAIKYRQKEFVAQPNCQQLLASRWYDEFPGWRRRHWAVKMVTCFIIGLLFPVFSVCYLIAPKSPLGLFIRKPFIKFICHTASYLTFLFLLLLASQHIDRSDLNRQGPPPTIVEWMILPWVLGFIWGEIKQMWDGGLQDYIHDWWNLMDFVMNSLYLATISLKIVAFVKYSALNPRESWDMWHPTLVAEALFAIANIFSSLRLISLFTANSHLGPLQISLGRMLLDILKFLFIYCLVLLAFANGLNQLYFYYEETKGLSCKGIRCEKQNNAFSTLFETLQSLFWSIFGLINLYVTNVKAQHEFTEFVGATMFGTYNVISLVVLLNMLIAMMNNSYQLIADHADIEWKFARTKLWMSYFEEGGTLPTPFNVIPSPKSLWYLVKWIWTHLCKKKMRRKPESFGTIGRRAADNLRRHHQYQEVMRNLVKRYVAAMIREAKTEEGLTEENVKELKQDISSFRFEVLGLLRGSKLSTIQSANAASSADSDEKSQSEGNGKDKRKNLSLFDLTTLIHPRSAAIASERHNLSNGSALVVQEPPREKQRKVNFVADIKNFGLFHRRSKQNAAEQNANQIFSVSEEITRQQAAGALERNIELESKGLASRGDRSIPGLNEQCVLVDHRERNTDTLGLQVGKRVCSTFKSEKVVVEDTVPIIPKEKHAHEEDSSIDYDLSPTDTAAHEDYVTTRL
Description: mouse TRPC4 channel activators, dose response, cell-based, HEK293 TRPC4/mu-opioid, Fluo-4 calcium (AID 434937). It counts as functional.

Series [10] addresses Cytochrome P450 2C9 (Homo sapiens, UniProt P11712).
For series [11], the target named is T4, Cytochrome P450 1A2 (Homo sapiens, UniProt P05177).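 Also: PubChem cytochrome P450 panel assay, CYP1A2 panel member.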
T4 sequence (P05177 whole entry): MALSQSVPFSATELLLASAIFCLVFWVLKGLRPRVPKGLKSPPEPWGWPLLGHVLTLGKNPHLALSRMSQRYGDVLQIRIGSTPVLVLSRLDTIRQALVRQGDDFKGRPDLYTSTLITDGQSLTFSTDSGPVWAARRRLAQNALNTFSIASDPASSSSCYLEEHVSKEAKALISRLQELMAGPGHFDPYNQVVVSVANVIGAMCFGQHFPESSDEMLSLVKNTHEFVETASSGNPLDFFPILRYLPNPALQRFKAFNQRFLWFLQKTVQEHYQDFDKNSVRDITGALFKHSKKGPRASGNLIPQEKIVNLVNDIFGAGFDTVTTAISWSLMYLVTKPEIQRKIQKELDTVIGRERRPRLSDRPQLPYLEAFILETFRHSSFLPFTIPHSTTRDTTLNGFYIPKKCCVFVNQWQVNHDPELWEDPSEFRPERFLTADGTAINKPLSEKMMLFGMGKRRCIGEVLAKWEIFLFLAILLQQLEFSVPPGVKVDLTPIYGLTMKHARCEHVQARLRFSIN

Series [12] addresses Cytochrome P450 3A4 (Homo sapiens, UniProt P08684).
Series [13] can be described thus: C. albicans growth with fluconazole, confirmation, fluorescence, retest (AID 2467). It counts as functional, cell-based.
For series [14], the system named is INS1. Description: beta cell apoptosis inhibitors, cytokine rescue, dose response, luminescence, retest (AID 449756).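 Also: cell death triggered by IL-1 beta plus TNF-alpha plus IFN-gamma mixture; protective hits raise ATP signal compared with cytokine alone wells.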 It counts as functional, cell-based. The note with it: Rattus norvegicus.
The nature of series [15]: growth suppression of PTEN-null colon cells, dose response, cell-based, HCT116 PTEN knockout (AID 1047).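 Also: HCT116 colon tumor cells with PTEN knocked out; cells exposed to compound for 60 hours before readout; potency for loss of cell viability measured by luminescence.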 It counts as functional.
Series [16] is described as follows: growth suppression of beta-catenin-knockout colon cells, dose response, cell-based, HCT116, human colon tumor (AID 1045).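 Also: HCT116 colon tumor cells with beta catenin knocked out; cells exposed to compound for 60 hours.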 It is filed as functional.
The nature of series [17]: NIH-3T3 fibroblast cytotoxicity, dose response, cytotoxicity control, cell-based, fluorescence, Alamar Blue, secondary assay (AID 2327).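 Also: NIH-3T3 mouse fibroblasts cultured with fluconazole at 8 µg/mL.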 It is filed as functional.

Chain of Cytochrome P450 2C9 (P11712 whole entry): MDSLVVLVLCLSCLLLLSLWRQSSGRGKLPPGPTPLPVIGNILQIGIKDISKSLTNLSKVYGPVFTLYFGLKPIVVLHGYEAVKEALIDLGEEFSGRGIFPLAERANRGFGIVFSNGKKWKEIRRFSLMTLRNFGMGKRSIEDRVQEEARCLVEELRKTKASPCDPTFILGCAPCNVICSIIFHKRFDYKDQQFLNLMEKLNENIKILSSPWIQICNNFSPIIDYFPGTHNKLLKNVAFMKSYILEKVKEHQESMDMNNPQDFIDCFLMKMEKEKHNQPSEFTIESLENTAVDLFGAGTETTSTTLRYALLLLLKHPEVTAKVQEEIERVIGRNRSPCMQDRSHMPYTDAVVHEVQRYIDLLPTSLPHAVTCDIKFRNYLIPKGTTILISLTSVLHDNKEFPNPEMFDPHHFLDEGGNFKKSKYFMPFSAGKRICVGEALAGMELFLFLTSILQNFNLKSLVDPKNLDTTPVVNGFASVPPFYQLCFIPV
Chain of Cytochrome P450 3A4 (P08684 whole entry): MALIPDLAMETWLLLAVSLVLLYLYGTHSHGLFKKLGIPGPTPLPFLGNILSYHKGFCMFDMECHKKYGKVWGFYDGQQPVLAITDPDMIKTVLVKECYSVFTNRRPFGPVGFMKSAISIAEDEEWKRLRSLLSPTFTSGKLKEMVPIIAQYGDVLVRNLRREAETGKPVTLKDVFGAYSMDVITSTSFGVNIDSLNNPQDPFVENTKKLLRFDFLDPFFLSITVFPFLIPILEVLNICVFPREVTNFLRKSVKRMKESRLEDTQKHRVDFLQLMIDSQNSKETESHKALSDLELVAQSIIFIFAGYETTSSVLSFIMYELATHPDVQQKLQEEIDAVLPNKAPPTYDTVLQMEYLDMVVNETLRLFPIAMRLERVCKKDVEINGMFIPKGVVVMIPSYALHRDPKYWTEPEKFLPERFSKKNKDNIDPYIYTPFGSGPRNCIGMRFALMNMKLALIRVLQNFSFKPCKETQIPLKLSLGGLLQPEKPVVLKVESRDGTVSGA
Chain of Large T antigen (P03070 whole entry): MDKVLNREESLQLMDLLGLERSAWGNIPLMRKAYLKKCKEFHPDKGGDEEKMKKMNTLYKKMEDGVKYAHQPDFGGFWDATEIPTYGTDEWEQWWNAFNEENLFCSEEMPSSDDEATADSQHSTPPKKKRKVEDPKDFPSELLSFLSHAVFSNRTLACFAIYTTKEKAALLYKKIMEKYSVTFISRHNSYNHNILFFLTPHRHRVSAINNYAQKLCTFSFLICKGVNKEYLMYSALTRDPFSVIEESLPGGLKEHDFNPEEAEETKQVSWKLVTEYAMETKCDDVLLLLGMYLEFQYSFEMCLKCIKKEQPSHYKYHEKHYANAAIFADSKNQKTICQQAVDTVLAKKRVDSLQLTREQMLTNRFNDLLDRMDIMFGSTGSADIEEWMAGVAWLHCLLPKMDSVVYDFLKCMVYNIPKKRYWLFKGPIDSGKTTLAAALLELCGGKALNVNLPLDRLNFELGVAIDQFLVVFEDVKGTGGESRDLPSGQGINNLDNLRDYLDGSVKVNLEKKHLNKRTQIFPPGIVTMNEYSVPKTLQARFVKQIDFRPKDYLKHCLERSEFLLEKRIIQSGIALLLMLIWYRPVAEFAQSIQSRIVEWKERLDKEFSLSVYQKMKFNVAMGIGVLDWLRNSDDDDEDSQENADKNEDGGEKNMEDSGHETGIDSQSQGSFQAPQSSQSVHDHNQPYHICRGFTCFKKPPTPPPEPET

For the compound `COc1cc(/C=N/N=C(\N)c2nonc2N)ccc1O`, the IC50 in series [1] is 12.2 µM (active); in [3], 18.9 µM (active). In addition, the figures for the EC50 in [2] and in series [4] were 7.47 µM (active) and 52.8 µM (active), respectively.
For the compound `O=C(Nc1ccc(S(=O)(=O)N2CCCCCC2)cc1)c1n[nH]cc1[N+](=O)[O-]`, the half-maximal effective concentration (EC50) is 6.09 µM (active) in series [5], 8.3 µM (active) in series [6] and 53.1 µM (active) in series [8]. Further, in series [7], the concentration at half-maximal activity (AC50) was 4.02 µM (active).
For the compound `C=CCn1c(CCNC(=O)C(C)(C)C)nc2ccccc21`, the EC50 in series [9] is 3.76 µM (active).
In the case of `COc1ccccc1CN1CC[C@@]2(CCCN(C(=O)c3c(C)noc3C)C2)C1`, the AC50 result in series [10] is reported as “inconclusive”.
As to `Cc1csc(NC(=O)CCNS(=O)(=O)c2ccc3c(c2)c(=O)n(C)c(=O)n3C)n1`, the AC50 entry is “inconclusive” in series [10] and 0.00631 µM (inconclusive) in [11].
With `C=CCSc1nc(C)cc(/C=C\c2ccccc2)c1C#N`, the concentration at half-maximal activity (AC50) entry in series [10] is listed as “inconclusive”.
As for `Cc1ccc(NC(=O)NCC(c2ccccc2)N(C)C)cc1` (stereo not given), the concentration giving a half-maximal response (EC50) in [9] was 0.004 µM (active).
The same measure, in the same setting: under `O=C(NCCc1ccccn1)c1ccc(COc2ccccc2)o1` stands 4.73 µM (active).
Regarding `O=C(Nc1cccc(F)c1)N1CC2(CCN(C(=O)c3cc(C(F)(F)F)cc(C(F)(F)F)c3)CC2)C1`, the AC50 result in series [10] is “inconclusive”; in series [12] it was 39.8 µM (inconclusive).
For the compound `COc1cccc(C(=O)Oc2c(CN3CCOCC3)cc(Cl)c3cccnc23)c1`, the EC50 is 1.83 µM (active) in [13], 3.38 µM (active) in series [15], 2.48 µM (active) in [16] and > 75 µM (inactive) in series [17]. Further, the AC50 in [14] is 4.85 µM (active); in series [7] it was 9.9 µM (active).
Regarding `COc1cc(/C=C/C(=O)N2CCN(CC(O)COc3ccccc3)CC2)cc(OC)c1OC.Cl` (stereo not given), the half-maximal activity concentration (AC50) entry in [10] is “inconclusive”; in [12], 10 µM (inconclusive).
